According to patent US9708314B2, “Heterocyclic amide compound” (NISSAN CHEMICAL INDUSTRIES, LTD., priority 2013, dated 2017):

How the values were obtained:
Assay type in all cases: in vivo
[1] = system: transplanted Oryza sativa; experiment: Test Example 1: effect on crop, application before weed generation in submerged conditions; conditions: Seventeenth Table; for a: transplanted Oryza sativa (effect on crop grade): Application herbicide amount 320 g/ha
Outline: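 Submerged pot test: alluvial soil, 4 cm water, seeds sown mixed, 2.5-leaf rice transplanted; emulsion in water applied to surface day of sowing, dose g/ha; greenhouse 25–30° C.; 3 wk; 0–5 rating.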

[2] = system: Echinochloa oryzacola Vasing.; experiment: Test Example 2: herbicidal activity, application during weed generation in submerged conditions; conditions: Eighteenth Table; application herbicide amount 320 g/ha
Outline: (§1)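 Paddy-type pot test: flooded soil, 4 cm depth, greenhouse 25–30 °C. Emulsion formulation diluted in water, applied to water surface at 1–2 leaf stage; rate expressed as g/ha. Read-out at 3 wk, 0–5 score.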

Monochoria vaginalis = experiment: as above; conditions: Eighteenth Table; application herbicide amount 320 g/ha
Outline: as §1

Scirpus juncoides = experiment: as above; conditions: Eighteenth Table; application herbicide amount 320 g/ha
Outline: as §1

Cyperus difformis = experiment: Test Example 3: herbicidal effect by application to foliage (Wagner pot, water depth 0.1-0.5 cm); conditions: Nineteenth Table; application to foliage; application herbicide amount 320 g/ha
Outline: (§2)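 A small sprayer delivered the diluted emulsion uniformly to foliage at the chosen rate in g/ha, 14 days after sowing in Wagner pots held at 25–30 °C. Outcome: 0–5 herbicidal-ratio score read three weeks post-treatment.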

[3] = system: Echinochloa crus-galli var. crus-galli; experiment: as above; conditions: Nineteenth Table; application to foliage; application herbicide amount 320 g/ha
Outline: as §2

Leptochloa chinensis = experiment: as above; conditions: Nineteenth Table; application to foliage; application herbicide amount 320 g/ha
Outline: as §2

[4] = system: directly sowed Oryza sativa; experiment: Test Example 3: effect on crop by application to foliage (Wagner pot, water depth 0.1-0.5 cm); conditions: Nineteenth Table; application to foliage; application herbicide amount 320 g/ha
Outline: as §2

Row | SMILES | a: transplanted Oryza sativa (effect on crop grade) [1] | A (Echinochloa oryzicola Vasing.) herbicidal ratio grade [2] | C (Monochoria vaginalis) herbicidal ratio grade (Monochoria vaginalis) | B (Scirpus juncoides) herbicidal ratio grade (Scirpus juncoides) | E (herbicidal effect grade) (Cyperus difformis) | H (herbicidal effect grade) [3] | D (herbicidal effect grade) (Leptochloa chinensis) | b (effect on crop grade) [4] | a (transplanted Oryza sativa) effect on crop grade ([1]; application herbicide amount 320 g/ha)
1 | CC(c1nnc2c(C(=O)Nc3nnnn3C)ccc(C(F)(F)F)n12)[S+](C)[O-] (stereo not shown) [2-053] | 5 (Herbicidal ratio of 90% or more (almost completely withered)) | 5 (Herbicidal ratio of 90% or more (almost completely withered)) | 4 (Herbicidal ratio of 70% or more and less than 90%) | 4 (Herbicidal ratio of 70% or more and less than 90%) | 5 (Herbicidal ratio of 90% or more (almost completely withered)) | 5 (Herbicidal ratio of 90% or more (almost completely withered)) | 5 (Herbicidal ratio of 90% or more (almost completely withered)) | 5 (Herbicidal ratio of 90% or more (almost completely withered)) | –
2 | Cn1nnnc1NC(=O)c1ccc(C(F)(F)F)n2c(SCC3CC3)nnc12 [2-084] | 4 (Herbicidal ratio of 70% or more and less than 90%) | 4 (Herbicidal ratio of 70% or more and less than 90%) | 3 (Herbicidal ratio of 40% or more and less than 70%) | 4 (Herbicidal ratio of 70% or more and less than 90%) | 5 (Herbicidal ratio of 90% or more (almost completely withered)) | 5 (Herbicidal ratio of 90% or more (almost completely withered)) | 5 (Herbicidal ratio of 90% or more (almost completely withered)) | 5 (Herbicidal ratio of 90% or more (almost completely withered)) | –
3 | CC(C)c1nnc2c(C(=O)Nc3nnnn3C)ccc(C(F)F)n12 [2-047] | 4 (Herbicidal ratio of 70% or more and less than 90%) | 3 (Herbicidal ratio of 40% or more and less than 70%) | 4 (Herbicidal ratio of 70% or more and less than 90%) | 5 (Herbicidal ratio of 90% or more (almost completely withered)) | 5 (Herbicidal ratio of 90% or more (almost completely withered)) | 4 (Herbicidal ratio of 70% or more and less than 90%) | 5 (Herbicidal ratio of 90% or more (almost completely withered)) | 3 (Herbicidal ratio of 40% or more and less than 70%) | –
4 | Cn1nnnc1NC(=O)c1ccc(C(F)(F)F)n2c(S(C)(=O)=O)nnc12 [2-037] | 4 (Herbicidal ratio of 70% or more and less than 90%) | 5 (Herbicidal ratio of 90% or more (almost completely withered)) | 5 (Herbicidal ratio of 90% or more (almost completely withered)) | 5 (Herbicidal ratio of 90% or more (almost completely withered)) | 5 (Herbicidal ratio of 90% or more (almost completely withered)) | 5 (Herbicidal ratio of 90% or more (almost completely withered)) | 5 (Herbicidal ratio of 90% or more (almost completely withered)) | 5 (Herbicidal ratio of 90% or more (almost completely withered)) | –
5 | Cn1nnnc1NC(=O)c1ccc(C(F)(F)F)n2c(Nc3ccccc3)nnc12 [2-056] | 1 (Herbicidal ratio of 5% or more and less than 20%) | 3 (Herbicidal ratio of 40% or more and less than 70%) | 3 (Herbicidal ratio of 40% or more and less than 70%) | 3 (Herbicidal ratio of 40% or more and less than 70%) | 4 (Herbicidal ratio of 70% or more and less than 90%) | 4 (Herbicidal ratio of 70% or more and less than 90%) | 5 (Herbicidal ratio of 90% or more (almost completely withered)) | 4 (Herbicidal ratio of 70% or more and less than 90%) | –
6 | CCn1nc2c(C(=O)Nc3nnnn3C)ccc(C(F)(F)F)n2c1=O [6-004] | – | 3 (Herbicidal ratio of 40% or more and less than 70%) | 2 (Herbicidal ratio of 20% or more and less than 40%) | 0 (Herbicidal ratio of 5% or less (almost no effect)) | 2 (Herbicidal ratio of 20% or more and less than 40%) | 4 (Herbicidal ratio of 70% or more and less than 90%) | 5 (Herbicidal ratio of 90% or more (almost completely withered)) | 3 (Herbicidal ratio of 40% or more and less than 70%) | 0 (Herbicidal ratio of 5% or less (almost no effect))
7 | COc1ccc(Cc2nnc3c(C(=O)Nc4nnnn4C)ccc(C(F)(F)F)n23)cc1 [2-065] | 2 (Herbicidal ratio of 20% or more and less than 40%) | 5 (Herbicidal ratio of 90% or more (almost completely withered)) | 4 (Herbicidal ratio of 70% or more and less than 90%) | 4 (Herbicidal ratio of 70% or more and less than 90%) | 5 (Herbicidal ratio of 90% or more (almost completely withered)) | 5 (Herbicidal ratio of 90% or more (almost completely withered)) | 5 (Herbicidal ratio of 90% or more (almost completely withered)) | 3 (Herbicidal ratio of 40% or more and less than 70%) | –
8 | CCN(CC)c1nnc2c(C(=O)Nc3nnnn3C)ccc(C(F)(F)F)n12 [2-089] | 4 (Herbicidal ratio of 70% or more and less than 90%) | 4 (Herbicidal ratio of 70% or more and less than 90%) | 5 (Herbicidal ratio of 90% or more (almost completely withered)) | 4 (Herbicidal ratio of 70% or more and less than 90%) | 4 (Herbicidal ratio of 70% or more and less than 90%) | 4 (Herbicidal ratio of 70% or more and less than 90%) | 5 (Herbicidal ratio of 90% or more (almost completely withered)) | 2 (Herbicidal ratio of 20% or more and less than 40%) | –
